From PubChem BioAssay (NCI)
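Protocol summary: plate cells (96-well), add compound at 5 concentrations, incubate 48 h, interpolate endpoints linearly. GI50 = concentration required for 50% inhibition of growth. TGI is the concentration that stops growth completely.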

Columns and labels:
Test in all cases: inhibition of tumour cell growth, NCI panel, 48 h
SF-295 CNS = tested on: SF-295 CNS
NCI-H460 lung = tested on: NCI-H460 lung
HCT-116 colon = tested on: HCT-116 colon
SF-539 CNS = tested on: SF-539 CNS
SN12C renal = tested on: SN12C renal
SF-268 CNS = tested on: SF-268 CNS
UACC-257 melanoma = tested on: UACC-257 melanoma
K-562 leukemia = tested on: K-562 leukemia

Compound	TGI (SF-295 CNS)	TGI (NCI-H460 lung)	TGI (HCT-116 colon)	TGI (SF-539 CNS)	TGI (SN12C renal)	TGI (SF-268 CNS)	TGI (UACC-257 melanoma)	TGI (K-562 leukemia)	GI50 (SF-295 CNS)	GI50 (NCI-H460 lung)	GI50 (HCT-116 colon)	GI50 (SN12C renal)	GI50 (SF-268 CNS)	GI50 (UACC-257 melanoma)	GI50 (K-562 leukemia)
CN1C(=O)[C@](C)(Cc2ccc(F)cc2)N(C(=O)OC(C)(C)C)[C@@H]1C(C)(C)C	50.7 µM	> 100 µM	> 100 µM	> 100 µM	32.4 µM	> 100 µM	92.3 µM	65.7 µM							
CC1CC/C(=C\c2ccc(F)cc2)C2=C1C(c1ccc(F)cc1)NC(=S)N2 (configuration not stated)	> 100 µM	> 100 µM	> 100 µM	> 100 µM	> 100 µM	> 100 µM	> 100 µM	> 100 µM							
COc1ccc(C(OCC2OC(n3ccc(Oc4c(F)c(F)c(F)c(F)c4F)nc3=O)CC2OP(OCCC#N)N(C(C)C)C(C)C)(c2ccccc2)c2ccc(OC)cc2)cc1 (configuration not stated)	> 100 µM	> 100 µM	> 100 µM	> 100 µM	> 100 µM	> 100 µM	> 100 µM	> 100 µM							
Cc1cc(S(=O)(=O)Nc2n[nH]c(N)n2)c(S)cc1Cl	> 10 µM	> 10 µM	> 10 µM	> 10 µM	> 10 µM	> 10 µM	> 10 µM	> 10 µM							
O=C(Nc1ccccc1C(=O)O)C(=Cc1ccccc1O)NC(=O)c1ccccc1	> 100 µM	> 100 µM	> 100 µM	> 100 µM	> 100 µM	> 100 µM	> 100 µM	> 100 µM							
Cc1cc(=O)oc2c(CN(CCCl)CCCl)c(O)ccc12	> 100 µM	> 100 µM	> 100 µM	> 100 µM	> 100 µM	> 100 µM	> 100 µM	> 100 µM							
CCOC(=O)CCN1C(=O)c2c(NC(=O)C(=O)O)cccc2S1(=O)=O	> 100 µM	> 100 µM	> 100 µM		> 100 µM	> 100 µM	> 100 µM	> 100 µM							
COc1cc2c3c4[n+](cc2c(OC)c1OC)CCC4CCC3 (configuration not stated)	> 100 µM	> 100 µM	> 100 µM	> 100 µM	> 100 µM	> 100 µM	> 100 µM	> 100 µM							
CCN(CC)CCC1(C(=O)OC)SCCc2ccc(C)cc21 (configuration not stated)	> 100 µM	> 100 µM	> 100 µM	> 100 µM	> 100 µM	> 100 µM	> 100 µM	> 100 µM							
COc1ccc(-c2nc3ncccn3c2-c2ccc(S(C)(=O)=O)cc2)cc1	> 100 µM	> 100 µM	> 100 µM	> 100 µM	> 100 µM	> 100 µM	> 100 µM	> 100 µM							
O=c1[nH]c(=O)c2c([nH]1)[nH]c1ccccc12	> 100 µM		> 100 µM	> 100 µM	> 100 µM	> 100 µM	> 100 µM	> 100 µM							
CC(=O)OCC12C(OC(C)=O)C[C@@H](C)C3(CC(c4ccoc4)OC3=O)C1CCC(OC(C)=O)C21CO1 (some centres not stated)	> 100 µM	> 100 µM	> 100 µM	> 100 µM	> 100 µM	> 100 µM	> 100 µM	> 100 µM							
N#CC(NNC(=O)c1c(Cl)c(Cl)c(Cl)c(Cl)c1-c1nc2ccc(C(=O)c3ccccc3)cc2[nH]1)c1cccc(Oc2ccccc2)c1 (configuration not stated)	96.6 µM		> 100 µM	43.4 µM	67.2 µM		> 100 µM	> 100 µM							
Cc1nc2cccc(F)c2c(=O)n1-c1nnc(C2CC2)s1	> 10 µM	> 10 µM	> 10 µM	> 10 µM	> 10 µM	> 10 µM	> 10 µM	> 10 µM							
Oc1[nH]c2ccccc2c1N=NC(=S)NCc1ccccn1	18 µM	11.4 µM	15.1 µM	5.06 µM	14.5 µM	3.84 µM	13.7 µM								
COc1ccc(Nc2ccnc3cc(Cl)ccc23)cc1CN(CCCl)CCCl	3.31 µM	2.96 µM	3.84 µM		6 µM	4.89 µM	5.96 µM	> 22.7 µM	0.804 µM	0.532 µM	1.14 µM	1.24 µM	1.15 µM	1.98 µM	1.53 µM
H-KIFKKFKTIIKKVWRIFGRF-NH2	4.68 µM		> 100 µM			5.45 µM	9.58 µM	> 100 µM	2.05 µM		3.22 µM		2.08 µM	2.85 µM	2.82 µM
NC(=O)c1nnc2c(F)cccc2c1N	> 100 µM	> 100 µM	> 100 µM	> 100 µM	> 100 µM	> 100 µM	> 100 µM	> 100 µM							
COC1OC(=O)C(OC)C(OC)C1OC (configuration not stated)	> 100 µM	> 100 µM	> 100 µM	> 100 µM	> 100 µM	> 100 µM	> 100 µM	> 100 µM							
N#Cc1c(NC(=S)Nc2ccccc2)sc2c1CCCC2	> 100 µM	> 100 µM	> 100 µM		> 100 µM	> 100 µM	> 100 µM	> 100 µM							
CN1CCN(C2CC(=O)c3c(Cl)sc(Cl)c32)CC1 (configuration not stated)	> 31.6 µM	> 75.3 µM	19.2 µM	49.6 µM	30 µM	> 31.1 µM	> 61.5 µM	> 100 µM							
CC(C)(C)C1=CC(O)(c2c3ccccc3c(C3(O)C=C(C(C)(C)C)C(=O)C(C(C)(C)C)=C3)c3ccccc23)C=C(C(C)(C)C)C1=O	> 100 µM		> 100 µM	> 100 µM	> 100 µM	> 100 µM	> 100 µM	> 100 µM							
CC(=O)OC1COC(n2c(N)c(C#N)c(-c3ccccc3)c(C#N)c2=S)C(OC(C)=O)C1OC(C)=O (configuration not stated)	> 100 µM	> 100 µM	> 100 µM	> 100 µM	> 100 µM	> 100 µM	> 100 µM								
CC(C)(CO)Nc1c(O)c2c(c(O)c1Cl)C(=O)C=CC2=O	3.21 µM	4.28 µM	3.07 µM	2.7 µM	2.91 µM	6.03 µM	3.11 µM	1.78 µM							
